# Where two headings read alike, the source gives them in different places.
# How the values were obtained:
# Assay type in all cases: in vivo
# [1] = tested on: giant foxtail (Setaria faberii); assay: Test A preemergence; conditions: Setaria faberi, pre-emergence, 240 h; for pest or weed control at 125 g/ha: 125 g ai/ha, 0 to 100 scale where 0 is no effect and 100 is complete control; for pest or weed control at 500 g/ha: 500 g ai/ha
# Summary of the method: (§1)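 In a loam soil and sand blend, planted seeds got a preemergence directed soil spray, and young plants at the one- to two-leaf stage, 2–10 cm high, got a postemergence application; ~10 d greenhouse hold; injury rated visually, 0 = none, 100 = complete control.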
# Kochia (Kochia scoparia) = assay: Test A preemergence; conditions: Bassia scoparia, pre-emergence, 240 h; for pest or weed control at 125 g/ha: 125 g ai/ha, 0 to 100 scale where 0 is no effect and 100 is complete control; for pest or weed control at 500 g/ha: 500 g ai/ha
# Summary of the method: as §1
# [2] = tested on: pigweed (Amaranthus retroflexus); assay: Test A preemergence; conditions: Amaranthus retroflexus, pre-emergence, 240 h; for pest or weed control at 125 g/ha: 125 g ai/ha, 0 to 100 scale where 0 is no effect and 100 is complete control; for pest or weed control at 500 g/ha: 500 g ai/ha
# [3] = tested on: barnyardgrass (Echinochloa crus-galli); assay: Test A preemergence; conditions: Echinochloa crus-galli, pre-emergence, 240 h; for pest or weed control at 125 g/ha: 125 g ai/ha, 0 to 100 scale where 0 is no effect and 100 is complete control; for pest or weed control at 500 g/ha: 500 g ai/ha
# Summary of the method: as §1
# [4] = tested on: ryegrass, Italian (Italian ryegrass, Lolium multiflorum); assay: Test A preemergence; conditions: Lolium multiflorum, pre-emergence, 240 h; for pest or weed control at 125 g/ha: 125 g ai/ha, 0 to 100 scale where 0 is no effect and 100 is complete control; for pest or weed control at 500 g/ha: 500 g ai/ha
# Summary of the method: as §1
# [5] = tested on: ragweed (common ragweed, Ambrosia elatior); assay: Test A preemergence; conditions: Ambrosia artemisiifolia, pre-emergence, 240 h; for pest or weed control at 125 g/ha: 125 g ai/ha, 0 to 100 scale where 0 is no effect and 100 is complete control; for pest or weed control at 500 g/ha: 500 g ai/ha
# Summary of the method: as §1
# corn (Zea mays) = assay: Test A postemergence; conditions: Zea mays, post-emergence, 240 h
# Summary of the method: as §1
# [6] = tested on: pigweed (Amaranthus retroflexus); assay: Test A postemergence; conditions: Amaranthus retroflexus, post-emergence, 240 h; for pest or weed control at 125 g/ha: 125 g ai/ha, postemergence
# Summary of the method: as §1
# [7] = tested on: ryegrass, Italian (Italian ryegrass, Lolium multiflorum); assay: Test A postemergence; conditions: Lolium multiflorum, post-emergence, 240 h; for pest or weed control at 125 g/ha: 125 g ai/ha, postemergence
# Summary of the method: as §1
# [8] = tested on: ragweed (common ragweed, Ambrosia elatior); assay: Test A postemergence; conditions: Ambrosia artemisiifolia, post-emergence, 240 h; for pest or weed control at 125 g/ha: 125 g ai/ha, postemergence
# Summary of the method: as §1
# [9] = tested on: blackgrass (Alopecurus myosuroides); assay: Test A postemergence; conditions: Alopecurus myosuroides, post-emergence, 240 h; for pest or weed control at 125 g/ha: 125 g ai/ha, postemergence
# Summary of the method: as §1
# [10] = tested on: ducksalad (Heteranthera limosa); assay: Test B flooded paddy test; conditions: Flood, 250 g ai/ha
# Summary of the method: (§2)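 Flooding to 3 cm over soil accompanied treatment, which consisted of adding compound to the standing water around 2-leaf plants; depth was then maintained. Visual assessment versus controls followed at 13 to 15 d (scale 0–100, 0 meaning no effect).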
# rice (Oryra sativa) = assay: Test B flooded paddy test; conditions: Flood, 250 g ai/ha
# Summary of the method: as §2
# [11] = tested on: barnyardgrass (Echinochloa crus-galli); assay: Test B flooded paddy test; conditions: Flood, 250 g ai/ha
# Summary of the method: as §2
# [12] = tested on: sedge, umbrella (small-flower umbrella sedge, Cyperus difformis); assay: Test B flooded paddy test; conditions: Flood, 250 g ai/ha
# Summary of the method: as §2
# [13] = 0 to 100 scale where 0 is no effect and 100 is complete control, 13 to 15 d
smiles,measurement,setting,value
CN1CC(c2cccc(C=O)c2)C(C(=O)Nc2ccccc2F)C1=O (centres unmarked) [Compound 844],pest or weed control at 125 g/ha,"[1]; preemergence, read-out: Foxtail, Giant plant response rating",0%
same,pest or weed control at 500 g/ha,"[1]; Preemergence, visual injury vs untreated controls after approximately 10 d, read-out: Foxtail, Giant plant response rating (0 to 100 scale where 0 is no effect and 100 is complete control)",30%
same,pest or weed control at 125 g/ha,"Kochia (Kochia scoparia); preemergence, read-out: Kochia plant response rating",0%
same,pest or weed control at 500 g/ha,"Kochia (Kochia scoparia); Preemergence, visual injury vs untreated controls after approximately 10 d, read-out: Kochia plant response rating (0 to 100 scale where 0 is no effect and 100 is complete control)",0%
same,pest or weed control at 125 g/ha,"[2]; preemergence, read-out: Pigweed plant response rating",0%
same,pest or weed control at 500 g/ha,"[2]; Preemergence, visual injury vs untreated controls after approximately 10 d, read-out: Pigweed plant response rating (0 to 100 scale where 0 is no effect and 100 is complete control)",0%
same,pest or weed control at 125 g/ha,"[3]; preemergence, read-out: Barnyardgrass plant response rating",0%
same,pest or weed control at 500 g/ha,"[3]; Preemergence, visual injury vs untreated controls after approximately 10 d, read-out: Barnyardgrass plant response rating (0 to 100 scale where 0 is no effect and 100 is complete control)",20%
same,pest or weed control at 125 g/ha,"[4]; preemergence, read-out: Ryegrass, Italian plant response rating",0%
same,pest or weed control at 500 g/ha,"[4]; Preemergence, visual injury vs untreated controls after approximately 10 d, read-out: Ryegrass, Italian plant response rating (0 to 100 scale where 0 is no effect and 100 is complete control)",0%
same,pest or weed control at 125 g/ha,"[5]; preemergence, read-out: Ragweed plant response rating",0%
same,pest or weed control at 500 g/ha,"[5]; Preemergence, visual injury vs untreated controls after approximately 10 d, read-out: Ragweed plant response rating (0 to 100 scale where 0 is no effect and 100 is complete control)",0%
same,plant injury at 125 g/ha,"corn (Zea mays); 125 g ai/ha, postemergence, visual injury rating after approximately 10 d, read-out: Corn plant response rating (0 to 100 scale, 0 no effect, 100 complete control)",0%
same,pest or weed control at 125 g/ha,"[6]; visual injury rating after approximately 10 d, read-out: Pigweed plant response rating (0 to 100 scale, 0 no effect, 100 complete control)",0%
same,pest or weed control at 125 g/ha,"[7]; visual injury rating after approximately 10 d, read-out: Ryegrass, Italian plant response rating (0 to 100 scale, 0 no effect, 100 complete control)",0%
same,pest or weed control at 125 g/ha,"[8]; visual injury rating after approximately 10 d, read-out: Ragweed plant response rating (0 to 100 scale, 0 no effect, 100 complete control)",0%
same,pest or weed control at 125 g/ha,"[9]; visual injury rating after approximately 10 d, read-out: Blackgrass plant response rating (0 to 100 scale, 0 no effect, 100 complete control)",0%
same,pest or weed control at 250 g/ha,"[10]; Heteranthera limosa, scale of 0 to 100 where 0 is no effect and 100 is complete control, read-out: Ducksalad plant response rating",0%
same,pest or weed control at 250 g/ha,"rice (Oryra sativa); Oryza sativa, scale of 0 to 100 where 0 is no effect and 100 is complete control, read-out: Rice plant response rating",0%
same,pest or weed control at 250 g/ha,"[11]; Echinochloa crus-galli, scale of 0 to 100 where 0 is no effect and 100 is complete control, read-out: Barnyardgrass plant response rating",0%
same,pest or weed control at 250 g/ha,"[12]; Cyperus difformis, scale of 0 to 100 where 0 is no effect and 100 is complete control, read-out: Sedge, Umbrella plant response rating",0%
"CN1C[C@H](c2ccc(C(F)(F)F)cc2)[C@@H](C(=O)Nc2cccc(F)c2F)C1=O [Compound 623, (3S,4S)—N-(2,3-difluorophenyl)-1-methyl-2-oxo-4-[4-(trifluoromethyl)phenyl]-3-pyrrolidinecarboxamide]",pest or weed control at 125 g/ha,"[1]; Preemergence, visual injury after approximately 10 d, read-out: Plant response rating, Foxtail, Giant",90%
same,pest or weed control at 500 g/ha,"[1]; preemergence, 0 to 100 scale, 0 = no effect, 100 = complete control, read-out: Plant response rating, Foxtail, Giant",90%
same,pest or weed control at 125 g/ha,"Kochia (Kochia scoparia); Preemergence, visual injury after approximately 10 d, read-out: Plant response rating, Kochia",60%
same,pest or weed control at 500 g/ha,"Kochia (Kochia scoparia); preemergence, 0 to 100 scale, 0 = no effect, 100 = complete control, read-out: Plant response rating, Kochia",70%
same,pest or weed control at 125 g/ha,"[2]; Preemergence, visual injury after approximately 10 d, read-out: Plant response rating, Pigweed",80%
same,pest or weed control at 500 g/ha,"[2]; preemergence, 0 to 100 scale, 0 = no effect, 100 = complete control, read-out: Plant response rating, Pigweed",80%
same,pest or weed control at 125 g/ha,"[3]; Preemergence, visual injury after approximately 10 d, read-out: Plant response rating, Barnyardgrass",90%
same,pest or weed control at 500 g/ha,"[3]; preemergence, 0 to 100 scale, 0 = no effect, 100 = complete control, read-out: Plant response rating, Barnyardgrass",90%
same,pest or weed control at 125 g/ha,"[4]; Preemergence, visual injury after approximately 10 d, read-out: Plant response rating, Ryegrass, Italian",80%
same,pest or weed control at 500 g/ha,"[4]; preemergence, 0 to 100 scale, 0 = no effect, 100 = complete control, read-out: Plant response rating, Ryegrass, Italian",90%
same,pest or weed control at 125 g/ha,"[5]; Preemergence, visual injury after approximately 10 d, read-out: Plant response rating, Ragweed",80%
same,pest or weed control at 500 g/ha,"[5]; preemergence, 0 to 100 scale, 0 = no effect, 100 = complete control, read-out: Plant response rating, Ragweed",80%
same,"Corn plant response rating (crop injury, 0 = no effect, 100 = complete kill) at 125 g/ha","corn (Zea mays); 125 g ai/ha, postemergence, visual rating after approx. 10 d, 0 to 100 scale (0 no effect, 100 complete control)",60%
same,"Corn plant response rating (crop injury, 0 = no effect, 100 = complete kill) at 500 g/ha","corn (Zea mays); Postemergence, 500 g ai/ha, 0 to 100 scale where 0 is no effect and 100 is complete control",70%
same,pest or weed control at 125 g/ha,"[6]; visual rating after approx. 10 d, 0 to 100 scale (0 no effect, 100 complete control), read-out: Plant response rating, Pigweed",60%
same,pest or weed control at 500 g/ha,"[6]; Postemergence, 500 g ai/ha, 0 to 100 scale where 0 is no effect and 100 is complete control, read-out: Plant response rating, Pigweed",60%
same,pest or weed control at 125 g/ha,"[7]; visual rating after approx. 10 d, 0 to 100 scale (0 no effect, 100 complete control), read-out: Plant response rating, Ryegrass, Italian",30%
same,pest or weed control at 500 g/ha,"[7]; Postemergence, 500 g ai/ha, 0 to 100 scale where 0 is no effect and 100 is complete control, read-out: Plant response rating, Ryegrass, Italian",60%
same,pest or weed control at 125 g/ha,"[8]; visual rating after approx. 10 d, 0 to 100 scale (0 no effect, 100 complete control), read-out: Plant response rating, Ragweed",20%
same,pest or weed control at 500 g/ha,"[8]; Postemergence, 500 g ai/ha, 0 to 100 scale where 0 is no effect and 100 is complete control, read-out: Plant response rating, Ragweed",0%
same,pest or weed control at 125 g/ha,"[9]; visual rating after approx. 10 d, 0 to 100 scale (0 no effect, 100 complete control), read-out: Plant response rating, Blackgrass",50%
same,pest or weed control at 500 g/ha,"[9]; Postemergence, 500 g ai/ha, 0 to 100 scale where 0 is no effect and 100 is complete control, read-out: Plant response rating, Blackgrass",60%
same,"Plant response rating, Ducksalad",[10]; [13],50
same,"Plant response rating, Rice",rice (Oryra sativa); [13],0
same,"Plant response rating, Barnyardgrass",[11]; [13],40
same,"Plant response rating, Sedge, Umbrella",[12]; [13],0
